This is an account of results in ChEMBL document CHEMBL4152373 (Bioorg Med Chem, 2018).

Series [1] has as its target Hydroxycarboxylic acid receptor 2 (Homo sapiens) (UniProt Q8TDS4). Description: Antagonist activity at GPR109a (unknown origin) at 10 uM by aequorin based assay relative to control. The series is classed as functional.
Series [2] in a line: Octanol-PBS buffer partition coefficient, log D of the compound at pH 7.4 by HPLC method.
Series [3] concerns the target T1, Gastric inhibitory polypeptide receptor (Homo sapiens) (UniProt P48546).
T1 sequence (whole entry): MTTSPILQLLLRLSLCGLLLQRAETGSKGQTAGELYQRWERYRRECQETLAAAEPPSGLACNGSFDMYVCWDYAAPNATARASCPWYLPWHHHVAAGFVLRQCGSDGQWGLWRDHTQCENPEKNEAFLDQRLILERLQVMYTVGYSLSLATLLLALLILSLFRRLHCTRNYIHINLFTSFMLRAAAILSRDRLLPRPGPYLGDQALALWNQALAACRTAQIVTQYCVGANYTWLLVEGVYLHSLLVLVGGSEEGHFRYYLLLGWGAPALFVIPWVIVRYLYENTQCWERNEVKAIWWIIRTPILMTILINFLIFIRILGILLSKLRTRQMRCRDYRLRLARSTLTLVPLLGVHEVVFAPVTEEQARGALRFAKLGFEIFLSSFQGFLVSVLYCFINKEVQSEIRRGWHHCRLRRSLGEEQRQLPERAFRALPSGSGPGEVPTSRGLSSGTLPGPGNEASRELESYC
The settings on record: 10 uM.
Description: Antagonist activity at GIPR (unknown origin) at 10 uM by cAMP accumulation based assay relative to control

Series [4] in a line: Half life in Sprague-Dawley rat at 1 mg/kg, iv administered as single dose by LC-MS/MS analysis. It is filed as ADME, organism-based. The following applies: in vivo.
The subject of series [5] is Mus musculus. The series is described as follows: Antidiabetic activity in FFA2R knock-out C57Bl/6J mouse assessed as inhibition of blood glucose AUC (0 to 120 mins) at […], po treated prior to glucose challenge by OGTT. It is filed as functional, organism-based.
Series [6] deals with Hydroxycarboxylic acid receptor 3 (Homo sapiens) (UniProt P49019). Description: Antagonist activity at GPR109b (unknown origin) at 10 uM by aequorin based assay relative to control. It is filed as functional.
Hydroxycarboxylic acid receptor 3 (Homo sapiens), sequence (P49019 whole entry): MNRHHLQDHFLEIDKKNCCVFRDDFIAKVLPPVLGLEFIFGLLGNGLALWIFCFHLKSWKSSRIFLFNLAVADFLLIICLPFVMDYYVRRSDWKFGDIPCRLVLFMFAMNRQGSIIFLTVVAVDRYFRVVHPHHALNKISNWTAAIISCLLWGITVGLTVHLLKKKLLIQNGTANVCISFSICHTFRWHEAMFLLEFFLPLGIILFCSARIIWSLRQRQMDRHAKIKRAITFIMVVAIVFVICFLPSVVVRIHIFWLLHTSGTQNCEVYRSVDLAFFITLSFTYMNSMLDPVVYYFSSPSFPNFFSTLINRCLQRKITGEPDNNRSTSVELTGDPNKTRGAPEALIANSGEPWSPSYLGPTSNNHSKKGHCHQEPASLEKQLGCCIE
Series [7] can be described thus: Oral bioavailability in Sprague-Dawley rat at 3 mg/kg administered via gavage as single dose by LC-MS/MS analysis. It is filed as ADME, organism-based. The following applies: in vivo.
The target in series [8] is T2, Free fatty acid receptor 4 (Homo sapiens) (UniProt Q5NUL3).
T2 sequence (whole entry): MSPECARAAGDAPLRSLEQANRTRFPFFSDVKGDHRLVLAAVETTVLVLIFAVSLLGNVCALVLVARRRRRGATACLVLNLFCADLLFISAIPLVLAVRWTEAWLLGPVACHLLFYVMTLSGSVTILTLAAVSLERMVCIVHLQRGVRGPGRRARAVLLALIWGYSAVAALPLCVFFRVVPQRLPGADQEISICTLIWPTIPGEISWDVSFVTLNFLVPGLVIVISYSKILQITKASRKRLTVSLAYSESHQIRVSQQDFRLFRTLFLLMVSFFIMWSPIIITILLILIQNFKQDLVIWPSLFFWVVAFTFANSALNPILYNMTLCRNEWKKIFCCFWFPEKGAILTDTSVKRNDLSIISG
Description: Antagonist activity at FFA4R (unknown origin) at 10 uM by aequorin based assay relative to control. The series is classed as functional.

For series [9], the target named is Hydroxycarboxylic acid receptor 2 (Homo sapiens) (UniProt Q8TDS4). Description: Agonist activity at GPR109a (unknown origin) at 10 uM by aequorin based assay relative to control. The series is classed as functional.
Hydroxycarboxylic acid receptor 2 (Homo sapiens), sequence (Q8TDS4 whole entry): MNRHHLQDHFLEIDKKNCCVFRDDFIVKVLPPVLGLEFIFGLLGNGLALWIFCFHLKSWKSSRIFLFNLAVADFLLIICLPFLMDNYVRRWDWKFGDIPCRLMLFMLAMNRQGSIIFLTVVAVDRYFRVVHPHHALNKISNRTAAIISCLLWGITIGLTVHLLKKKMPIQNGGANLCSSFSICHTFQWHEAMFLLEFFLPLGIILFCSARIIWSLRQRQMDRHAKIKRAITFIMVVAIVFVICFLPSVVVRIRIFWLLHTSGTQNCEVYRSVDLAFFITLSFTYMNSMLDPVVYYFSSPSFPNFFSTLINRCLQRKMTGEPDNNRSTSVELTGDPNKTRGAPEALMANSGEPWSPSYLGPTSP
A further series deals with Rattus norvegicus. The series is described as follows: Dose normalized unbound AUC in Sprague-Dawley rat at 3 mg/kg, po administered via gavage as single dose by LC-MS/MS analysis. The series is classed as ADME, organism-based. The following applies: in vivo.
Series [10] can be described thus: Fraction unbound in rat plasma at 5 uM after 4 hrs by equilibrium dialysis method. For orientation: In equilibrium dialysis free small molecules cross a membrane that holds back macromolecules.
Series [11] has as its system Mus musculus. The series is described as follows: Antidiabetic activity in C57Bl/6J mouse assessed as inhibition of blood glucose AUC (0 to 120 mins) at 50 mg/kg, po treated prior to glucose challenge by OGTT relative to control. It is filed as functional.
For series [12], the target named is T3, Glucose-dependent insulinotropic receptor (Homo sapiens) (UniProt Q8TDV5).
T3 sequence (whole entry): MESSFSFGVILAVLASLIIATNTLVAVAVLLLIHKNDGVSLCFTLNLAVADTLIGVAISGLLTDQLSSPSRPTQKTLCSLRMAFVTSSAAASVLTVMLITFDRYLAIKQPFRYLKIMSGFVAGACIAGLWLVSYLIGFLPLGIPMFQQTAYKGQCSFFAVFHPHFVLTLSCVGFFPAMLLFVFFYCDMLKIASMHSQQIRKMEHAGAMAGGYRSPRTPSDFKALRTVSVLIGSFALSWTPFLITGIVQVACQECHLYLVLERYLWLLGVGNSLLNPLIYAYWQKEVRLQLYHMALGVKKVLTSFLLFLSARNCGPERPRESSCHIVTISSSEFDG
The series is described as follows: Antagonist activity at GPR119 (unknown origin) at 10 uM by cAMP accumulation based assay relative to control. The series is classed as functional.

Series [13] has as its target T4, Glucocorticoid receptor (Homo sapiens) (UniProt P04150).
T4 sequence (whole entry): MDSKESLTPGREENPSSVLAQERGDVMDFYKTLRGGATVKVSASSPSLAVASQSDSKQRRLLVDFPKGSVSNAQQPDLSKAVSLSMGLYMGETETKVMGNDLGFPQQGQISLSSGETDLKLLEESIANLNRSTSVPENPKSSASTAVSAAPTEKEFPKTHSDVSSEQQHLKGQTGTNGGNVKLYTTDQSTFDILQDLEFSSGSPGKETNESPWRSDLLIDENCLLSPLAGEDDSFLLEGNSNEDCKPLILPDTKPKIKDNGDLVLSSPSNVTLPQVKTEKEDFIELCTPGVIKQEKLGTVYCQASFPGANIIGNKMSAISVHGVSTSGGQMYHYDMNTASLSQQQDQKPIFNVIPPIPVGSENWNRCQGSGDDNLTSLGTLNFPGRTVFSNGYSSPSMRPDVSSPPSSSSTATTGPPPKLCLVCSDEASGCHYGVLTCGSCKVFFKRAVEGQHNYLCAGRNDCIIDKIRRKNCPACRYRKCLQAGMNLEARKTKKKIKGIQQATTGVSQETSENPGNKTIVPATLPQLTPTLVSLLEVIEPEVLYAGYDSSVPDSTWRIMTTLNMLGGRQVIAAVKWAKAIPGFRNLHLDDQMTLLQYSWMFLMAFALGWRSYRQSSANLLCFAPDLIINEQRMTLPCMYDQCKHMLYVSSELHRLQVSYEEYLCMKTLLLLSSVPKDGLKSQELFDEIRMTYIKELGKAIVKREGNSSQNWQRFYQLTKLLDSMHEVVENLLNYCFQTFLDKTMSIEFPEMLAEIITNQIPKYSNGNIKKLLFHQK
The settings on record: 10 uM.
Description: Antagonist activity at GCR (unknown origin) at 10 uM by cAMP accumulation based assay relative to control

For series [14], the target named is Glucagon-like peptide 1 receptor (Homo sapiens) (UniProt P43220). The following applies: 10 uM.
Glucagon-like peptide 1 receptor (Homo sapiens), sequence (P43220 whole entry): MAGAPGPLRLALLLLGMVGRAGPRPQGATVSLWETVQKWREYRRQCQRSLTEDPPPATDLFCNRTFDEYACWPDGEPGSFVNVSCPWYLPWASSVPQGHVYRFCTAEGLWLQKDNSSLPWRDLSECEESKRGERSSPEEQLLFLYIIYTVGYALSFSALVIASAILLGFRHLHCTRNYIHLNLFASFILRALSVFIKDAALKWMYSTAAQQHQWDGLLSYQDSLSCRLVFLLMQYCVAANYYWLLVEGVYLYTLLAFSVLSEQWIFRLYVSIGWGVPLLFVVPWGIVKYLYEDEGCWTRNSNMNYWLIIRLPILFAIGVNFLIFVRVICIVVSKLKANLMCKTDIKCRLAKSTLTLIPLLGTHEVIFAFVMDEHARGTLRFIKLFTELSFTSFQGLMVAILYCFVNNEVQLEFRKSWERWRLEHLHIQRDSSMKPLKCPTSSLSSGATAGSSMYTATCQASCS
Description: Antagonist activity at GLP1R (unknown origin) at 10 uM by cAMP accumulation based assay relative to control
Series [15] in a line: Fraction unbound in mouse plasma at 5 uM after 4 hrs by equilibrium dialysis method.
Series [16] deals with T3, Glucose-dependent insulinotropic receptor (Homo sapiens). The series is described as follows: Agonist activity at GPR119 (unknown origin) at 10 uM by cAMP accumulation based assay relative to control. It is filed as functional.
In series [17] the test system is Mus musculus. Description: Dose normalized unbound AUC in C57Bl/6J mouse at 50 mg/kg, po administered via gavage as single dose by LC-MS/MS analysis. The following applies: in vivo. It is filed as ADME, organism-based.

The inhibition is how much of the control response was suppressed. Usually logD stands for lipophilicity at a set pH, counting ionised and neutral species. The term half-life denotes how long it takes for the measured level to halve. Higher therefore signals slow loss. Broadly, the bioavailability is dose-corrected exposure relative to a reference, in per cent. A low value points to little systemic uptake. The fraction unbound is free concentration divided by total concentration. Read a low fraction unbound as extensive binding. By inhibition in vivo is commonly meant how much of the control response was suppressed.

Active and inactive are the calls of the source. No cut-off for these calls is given here. Bounds are passed on as bounds.

Consider `COc1ccc(-c2ccccc2-c2csc(N(C(=O)[C@@H](CC(=O)O)CC3CCCC3)C3CC3)n2)cn1`, for which the inhibition in series [1] was below 10%; in [3], below 10%; in series [6] it was 22%; in series [8] it was 16%; in series [12], below 10%; in series [13], below 10%. This compound came in with an inhibition in series [14] below 10%. This compound returned a logD in series [2] of 2.6. Also, the half-life in series [4] came out at 4 h. In the series with Mus musculus [5], the inhibition entry is “Active”. This compound displayed a bioavailability in [7] of 47%. Moreover, the Activity in [9] and in [16] was below 10% throughout. Further, the fAUC/dose with Rattus norvegicus amounted to 0.29 µM·min; in the series on Mus musculus [17], 2.1 µM·min. The fraction unbound at 4 h, 5 µM in series [10] came to 0.0006; in series [15] it was 0.0023. Moreover, in the series on Mus musculus [11], the inhibition in vivo at 50 mg/kg was determined as 33%.
